For experiment [1], the target named is Tyrosine-protein kinase Lck (Homo sapiens) (UniProt P06239). Put plainly: Inhibition of recombinant full length human LCK assessed as residual activity at 1 uM using KVEKIGEGTYGVVYK as substrate after 40 mins in presence of [gamma-33ATP] by scintillation counting based radiometry assay relative to control.
The target in experiment [2] is Fibroblast growth factor receptor 4 (Homo sapiens) (UniProt P22455). Briefly: Inhibition of recombinant human FGFR4 (442 to 755 residues) assessed as residual activity at 1 uM using poly(Glu, Tyr) 4:1 as substrate at 40 mins in presence of [gamma-33ATP] by scintillation counting based radiometry assay relative to control.
Experiment [3] deals with Protein kinase C zeta type (Homo sapiens) (UniProt Q05513). Briefly: Inhibition of recombinant human PKCzeta (2 to end residues) assessed as residual activity at 1 uM using ERMRPRKRQGSVRRRV as substrate measured after 40 mins in presence of [gamma33P]ATP by scintillation counting method relative to control.
In experiment [4] the target is Serine/threonine-protein kinase 4 (Homo sapiens) (UniProt Q13043). Put plainly: Inhibition of recombinant full-length human MST1 assessed as residual activity at 1 uM using KKSRGDYMTMQIG as substrate measured after 40 mins in presence of [gamma33P]ATP by scintillation counting method relative to control.
For experiment [5], the target named is 5'-AMP-activated protein kinase catalytic subunit alpha-1 (Homo sapiens) (UniProt Q13131). Briefly: Inhibition of recombinant full length human AMPKalpha1 assessed as residual activity at 1 uM using AMARAASAAALAR as substrate incubated for 40 mins in presence of [gamma-33ATP] by scintillation counting based radiometry assay relative to control.
In experiment [6] the target is Protein kinase C epsilon type (Homo sapiens) (UniProt Q02156). Briefly: Inhibition of recombinant human PKCepsilon (2 to end residues) assessed as residual activity at 1 uM using ERMRPRKRQGSVRRRV as substrate measured after 40 mins in presence of [gamma33P]ATP by scintillation counting method relative to control.
Experiment [7] has as its target 3-phosphoinositide-dependent protein kinase 1 (Homo sapiens) (UniProt O15530). Briefly: Inhibition of recombinant human PDK1 (52 to end residues) assessed as residual activity at 1 uM using PDKtide as substrate measured after 40 mins in presence of [gamma33P]ATP by scintillation counting method relative to control.
Experiment [8] has as its target T1, cGMP-dependent protein kinase 1 (Homo sapiens) (UniProt Q13976).
T1 sequence (whole entry): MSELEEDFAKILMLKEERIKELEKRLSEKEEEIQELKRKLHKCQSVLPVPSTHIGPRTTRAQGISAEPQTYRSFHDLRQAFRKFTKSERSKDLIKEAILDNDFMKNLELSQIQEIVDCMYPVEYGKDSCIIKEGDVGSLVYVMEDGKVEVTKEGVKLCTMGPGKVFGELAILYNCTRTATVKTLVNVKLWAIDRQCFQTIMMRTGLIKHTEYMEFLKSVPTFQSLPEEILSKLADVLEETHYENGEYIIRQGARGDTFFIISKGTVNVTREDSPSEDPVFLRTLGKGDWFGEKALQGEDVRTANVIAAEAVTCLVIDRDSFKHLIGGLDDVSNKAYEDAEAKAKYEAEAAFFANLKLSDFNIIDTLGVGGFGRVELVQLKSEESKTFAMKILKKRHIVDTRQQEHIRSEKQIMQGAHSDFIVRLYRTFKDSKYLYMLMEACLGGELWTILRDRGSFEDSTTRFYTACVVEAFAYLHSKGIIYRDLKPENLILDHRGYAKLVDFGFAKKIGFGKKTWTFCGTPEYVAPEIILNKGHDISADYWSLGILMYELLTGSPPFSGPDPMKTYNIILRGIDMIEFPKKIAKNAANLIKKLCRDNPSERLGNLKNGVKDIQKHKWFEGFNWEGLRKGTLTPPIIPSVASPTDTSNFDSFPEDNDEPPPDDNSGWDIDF
Briefly: Inhibition of recombinant full-length human PKG1alpha assessed as residual activity at 1 uM using RRRLSFAEPG as substrate measured after 40 mins in presence of [gamma33P]ATP by scintillation counting method relative to control.

Experiment [9] addresses Mitogen-activated protein kinase kinase kinase 11 (Homo sapiens) (UniProt Q16584). Put plainly: Inhibition of recombinant human MLK3 assessed as residual activity at 1 uM using by scintillation counting based radiometry assay relative to control.
In experiment [10] the target is Receptor-interacting serine/threonine-protein kinase 2 (Homo sapiens) (UniProt O43353). Briefly: Inhibition of recombinant human RIPK2 (1 to 299 residues) assessed as residual activity at 1 uM using myelin basic protein as substrate measured after 120 mins in presence of [gamma33P]ATP by scintillation counting method relative to control.
Experiment [11] concerns Glycogen synthase kinase-3 alpha (Homo sapiens), P49840 [UNDEFINED MUTATION]. Briefly: Inhibition of human GSK-3alpha S449A mutant (2 to end residues) assessed as residual activity at 1 uM using phospho GS2 peptide as substrate after 40 mins by [gamma-33ATP] radiometric assay.
In experiment [12] the target is Tyrosine-protein kinase TXK (Homo sapiens) (UniProt P42681). Briefly: Inhibition of human Txk (256 to end residues) assessed as residual activity at 1 uM using GEEPLYWSFPAKKK as substrate measured after 40 mins in presence of [gamma33P]ATP by scintillation counting method relative to control.
The target in experiment [13] is Protein kinase C delta type (Homo sapiens) (UniProt Q05655). Briefly: Inhibition of recombinant human PKCdelta (2 to end residues) assessed as residual activity at 1 uM using ERMRPRKRQGSVRRRV as substrate measured after 40 mins in presence of [gamma33P]ATP by scintillation counting method relative to control.
Experiment [14] addresses Ephrin type-A receptor 5 (Homo sapiens) (UniProt P54756). Put plainly: Inhibition of recombinant human EphA5 (655to 956 residues) assessed as residual activity at 1 uM using poly(Glu, Tyr) 4:1 as substrate at 40 mins in presence of [gamma-33ATP] by scintillation counting based radiometry assay relative to control.
Experiment [15] deals with Casein kinase I isoform delta (Homo sapiens) (UniProt P48730). Briefly: Inhibition of recombinant human CK1delta (1 to 294 residues) assessed as residual activity at 1 uM using KRRRALS(p)VASLPGL as substrate incubated for 40 mins in presence of [gamma-33ATP] by scintillation counting based radiometry assay relative to control.
Experiment [16] addresses Tyrosine-protein kinase ABL2 (Homo sapiens) (UniProt P42684). Briefly: Inhibition of human Arg (38 to end residues) assessed as residual activity at 1 uM using EAIYAAPFAKKK as substrate incubated for 40 mins in presence of [gamma-33ATP] by scintillation counting based radiometry assay relative to control.
The target in experiment [17] is Bone morphogenetic protein receptor type-2 (Homo sapiens) (UniProt Q13873). Briefly: Inhibition of recombinant human BMPR2 (172 to 734 residues) assessed as residual activity at 1 uM using myelin basic protein as substrate incubated for 120 mins in presence of [gamma-33ATP] by scintillation counting based radiometry assay relative to control.

Two compounds from ChEMBL document CHEMBL4334438, “Discovery of novel glycogen synthase kinase-3α inhibitors: Structure-based virtual screening, preliminary SAR and biological evaluation for treatment of acute myeloid leukemia” (Eur J Med Chem, 2019) can be followed below.

Sequence of Tyrosine-protein kinase ABL2 (Homo sapiens) (P42684 whole entry, the tested form may be a part): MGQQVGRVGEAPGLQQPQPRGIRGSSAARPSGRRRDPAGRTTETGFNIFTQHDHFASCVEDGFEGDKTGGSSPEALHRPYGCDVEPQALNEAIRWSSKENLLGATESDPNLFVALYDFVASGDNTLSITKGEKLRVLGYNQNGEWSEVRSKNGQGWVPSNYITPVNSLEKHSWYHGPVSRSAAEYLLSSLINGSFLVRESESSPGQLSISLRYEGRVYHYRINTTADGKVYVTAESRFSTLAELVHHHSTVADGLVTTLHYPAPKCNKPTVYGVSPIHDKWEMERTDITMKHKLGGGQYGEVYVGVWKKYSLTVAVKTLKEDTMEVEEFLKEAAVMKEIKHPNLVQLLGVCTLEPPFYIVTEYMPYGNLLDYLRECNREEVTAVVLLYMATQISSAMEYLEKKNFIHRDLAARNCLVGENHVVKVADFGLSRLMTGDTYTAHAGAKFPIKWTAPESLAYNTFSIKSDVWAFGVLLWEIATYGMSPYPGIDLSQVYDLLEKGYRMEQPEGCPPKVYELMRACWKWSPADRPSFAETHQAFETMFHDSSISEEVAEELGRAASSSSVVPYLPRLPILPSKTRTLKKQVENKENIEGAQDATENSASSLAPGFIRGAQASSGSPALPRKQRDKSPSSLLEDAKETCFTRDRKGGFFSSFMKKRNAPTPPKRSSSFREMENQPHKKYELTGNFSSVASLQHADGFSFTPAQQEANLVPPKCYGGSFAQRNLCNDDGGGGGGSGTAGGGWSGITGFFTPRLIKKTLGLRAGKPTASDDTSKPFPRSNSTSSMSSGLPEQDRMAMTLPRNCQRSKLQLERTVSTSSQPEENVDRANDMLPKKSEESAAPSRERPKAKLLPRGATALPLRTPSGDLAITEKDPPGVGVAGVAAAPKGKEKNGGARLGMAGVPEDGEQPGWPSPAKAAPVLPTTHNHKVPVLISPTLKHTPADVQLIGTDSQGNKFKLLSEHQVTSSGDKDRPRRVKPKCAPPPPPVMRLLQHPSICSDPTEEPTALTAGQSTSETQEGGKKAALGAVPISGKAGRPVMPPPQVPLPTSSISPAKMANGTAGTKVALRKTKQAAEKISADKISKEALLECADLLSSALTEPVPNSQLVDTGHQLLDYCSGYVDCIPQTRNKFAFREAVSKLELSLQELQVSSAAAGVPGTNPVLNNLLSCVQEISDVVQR
Sequence of Glycogen synthase kinase-3 alpha (Homo sapiens), P49840 [UNDEFINED MUTATION] (P49840 whole entry, looked up, stated change not applied): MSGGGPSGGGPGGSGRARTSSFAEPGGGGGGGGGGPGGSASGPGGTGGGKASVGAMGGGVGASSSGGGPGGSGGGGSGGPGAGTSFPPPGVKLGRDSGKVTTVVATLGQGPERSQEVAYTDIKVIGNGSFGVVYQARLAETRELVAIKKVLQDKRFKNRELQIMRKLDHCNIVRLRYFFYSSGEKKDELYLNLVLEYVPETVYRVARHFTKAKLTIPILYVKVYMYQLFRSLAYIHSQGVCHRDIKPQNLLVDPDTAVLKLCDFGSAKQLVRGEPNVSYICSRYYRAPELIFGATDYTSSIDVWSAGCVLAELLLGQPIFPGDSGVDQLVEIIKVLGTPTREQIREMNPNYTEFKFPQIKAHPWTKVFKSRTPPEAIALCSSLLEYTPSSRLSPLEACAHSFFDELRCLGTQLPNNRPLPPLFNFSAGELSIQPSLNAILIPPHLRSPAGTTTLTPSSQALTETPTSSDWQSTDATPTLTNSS
Sequence of Bone morphogenetic protein receptor type-2 (Homo sapiens) (Q13873 whole entry, the tested form may be a part): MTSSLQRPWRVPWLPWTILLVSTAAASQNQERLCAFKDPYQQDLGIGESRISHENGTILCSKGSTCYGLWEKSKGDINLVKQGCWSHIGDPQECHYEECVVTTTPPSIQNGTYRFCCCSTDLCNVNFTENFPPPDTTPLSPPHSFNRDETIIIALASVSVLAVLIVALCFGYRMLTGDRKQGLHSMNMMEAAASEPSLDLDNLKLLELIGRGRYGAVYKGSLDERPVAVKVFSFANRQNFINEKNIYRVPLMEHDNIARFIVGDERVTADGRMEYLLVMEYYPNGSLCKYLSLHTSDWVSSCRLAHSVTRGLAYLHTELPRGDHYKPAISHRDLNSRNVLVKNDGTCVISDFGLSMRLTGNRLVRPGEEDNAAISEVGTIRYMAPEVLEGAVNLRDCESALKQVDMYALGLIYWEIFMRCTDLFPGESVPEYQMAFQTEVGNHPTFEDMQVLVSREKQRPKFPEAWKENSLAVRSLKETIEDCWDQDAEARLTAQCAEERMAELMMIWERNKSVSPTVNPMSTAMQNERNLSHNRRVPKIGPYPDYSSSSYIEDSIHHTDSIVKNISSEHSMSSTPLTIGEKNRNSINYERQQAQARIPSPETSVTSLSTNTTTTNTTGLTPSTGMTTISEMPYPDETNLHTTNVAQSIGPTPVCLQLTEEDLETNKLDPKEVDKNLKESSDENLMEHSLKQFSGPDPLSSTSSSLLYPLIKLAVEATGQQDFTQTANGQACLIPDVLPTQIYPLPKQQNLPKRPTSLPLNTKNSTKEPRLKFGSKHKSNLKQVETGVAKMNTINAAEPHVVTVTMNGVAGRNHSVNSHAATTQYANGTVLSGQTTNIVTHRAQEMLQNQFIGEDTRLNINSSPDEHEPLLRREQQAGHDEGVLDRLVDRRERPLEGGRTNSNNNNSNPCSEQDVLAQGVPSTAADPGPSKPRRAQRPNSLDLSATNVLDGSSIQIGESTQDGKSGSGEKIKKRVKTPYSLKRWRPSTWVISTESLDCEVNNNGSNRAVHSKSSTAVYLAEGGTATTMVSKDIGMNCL
Sequence of Protein kinase C zeta type (Homo sapiens) (Q05513 whole entry): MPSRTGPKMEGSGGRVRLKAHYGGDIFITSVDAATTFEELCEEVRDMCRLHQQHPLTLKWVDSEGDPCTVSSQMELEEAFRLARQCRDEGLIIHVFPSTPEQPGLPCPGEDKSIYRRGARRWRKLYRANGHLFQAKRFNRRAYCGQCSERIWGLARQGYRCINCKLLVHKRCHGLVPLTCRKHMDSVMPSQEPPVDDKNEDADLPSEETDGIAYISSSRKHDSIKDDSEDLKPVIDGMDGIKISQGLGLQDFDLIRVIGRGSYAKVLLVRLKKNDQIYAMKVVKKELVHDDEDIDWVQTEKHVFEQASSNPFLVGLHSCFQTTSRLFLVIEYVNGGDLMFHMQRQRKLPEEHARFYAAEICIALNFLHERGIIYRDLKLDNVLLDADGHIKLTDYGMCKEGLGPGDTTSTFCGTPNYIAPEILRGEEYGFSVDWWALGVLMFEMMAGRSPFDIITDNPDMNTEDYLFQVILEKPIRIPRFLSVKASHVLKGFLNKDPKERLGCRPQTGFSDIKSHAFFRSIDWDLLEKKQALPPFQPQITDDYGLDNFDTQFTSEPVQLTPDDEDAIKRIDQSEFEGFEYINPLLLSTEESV
Sequence of Serine/threonine-protein kinase 4 (Homo sapiens) (Q13043 whole entry): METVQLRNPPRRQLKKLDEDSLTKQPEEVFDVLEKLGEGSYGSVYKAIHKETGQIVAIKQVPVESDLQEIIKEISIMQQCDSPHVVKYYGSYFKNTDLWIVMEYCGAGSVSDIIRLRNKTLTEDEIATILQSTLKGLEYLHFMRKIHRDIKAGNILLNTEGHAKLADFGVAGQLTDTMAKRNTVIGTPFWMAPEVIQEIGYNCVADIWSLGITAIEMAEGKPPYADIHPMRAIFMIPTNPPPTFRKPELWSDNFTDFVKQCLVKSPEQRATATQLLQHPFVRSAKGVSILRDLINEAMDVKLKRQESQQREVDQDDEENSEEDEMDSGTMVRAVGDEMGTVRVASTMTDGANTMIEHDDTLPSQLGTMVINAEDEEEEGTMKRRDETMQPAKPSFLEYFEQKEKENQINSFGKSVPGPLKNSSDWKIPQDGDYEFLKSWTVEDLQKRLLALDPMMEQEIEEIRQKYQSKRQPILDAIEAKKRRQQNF
Sequence of Tyrosine-protein kinase TXK (Homo sapiens) (P42681 whole entry): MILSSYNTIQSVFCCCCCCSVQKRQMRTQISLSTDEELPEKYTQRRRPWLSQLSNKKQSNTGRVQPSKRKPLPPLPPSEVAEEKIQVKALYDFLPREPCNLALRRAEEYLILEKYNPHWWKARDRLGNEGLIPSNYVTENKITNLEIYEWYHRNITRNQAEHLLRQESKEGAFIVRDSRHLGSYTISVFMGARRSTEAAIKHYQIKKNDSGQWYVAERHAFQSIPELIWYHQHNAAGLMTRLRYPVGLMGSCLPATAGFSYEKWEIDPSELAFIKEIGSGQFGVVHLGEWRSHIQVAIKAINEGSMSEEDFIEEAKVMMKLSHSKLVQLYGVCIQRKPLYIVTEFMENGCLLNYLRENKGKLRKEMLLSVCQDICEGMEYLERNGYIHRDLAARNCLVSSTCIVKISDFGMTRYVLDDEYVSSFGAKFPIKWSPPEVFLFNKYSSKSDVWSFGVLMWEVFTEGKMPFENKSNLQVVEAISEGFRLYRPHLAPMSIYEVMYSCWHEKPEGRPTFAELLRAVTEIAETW
Sequence of Protein kinase C delta type (Homo sapiens) (Q05655 whole entry, looked up, the tested form may be a part): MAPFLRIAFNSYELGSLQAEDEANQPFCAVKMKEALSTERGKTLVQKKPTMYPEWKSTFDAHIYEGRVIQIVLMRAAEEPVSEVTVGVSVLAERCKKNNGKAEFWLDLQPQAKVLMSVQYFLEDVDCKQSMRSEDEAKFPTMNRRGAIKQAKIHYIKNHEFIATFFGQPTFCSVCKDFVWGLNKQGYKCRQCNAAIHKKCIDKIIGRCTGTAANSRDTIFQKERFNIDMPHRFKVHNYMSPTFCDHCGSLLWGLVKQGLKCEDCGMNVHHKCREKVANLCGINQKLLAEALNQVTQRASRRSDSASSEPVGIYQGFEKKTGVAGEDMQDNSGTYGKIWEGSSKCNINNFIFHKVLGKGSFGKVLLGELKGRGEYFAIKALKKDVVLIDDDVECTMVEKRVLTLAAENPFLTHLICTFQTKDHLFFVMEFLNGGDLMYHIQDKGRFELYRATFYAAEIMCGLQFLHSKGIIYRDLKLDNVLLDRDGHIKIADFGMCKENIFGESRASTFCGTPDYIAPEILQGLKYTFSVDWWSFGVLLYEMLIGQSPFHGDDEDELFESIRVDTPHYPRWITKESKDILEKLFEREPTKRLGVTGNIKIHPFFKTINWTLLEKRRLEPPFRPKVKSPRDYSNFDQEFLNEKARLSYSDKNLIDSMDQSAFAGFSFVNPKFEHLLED

For `N=C1NC(=O)/C(=C\c2ccc(-c3cccc([N+](=O)[O-])c3)o2)S1`, the Activity in experiment [1] was 89%; in experiment [2], 106%; in experiment [3], 108%; in experiment [4] it was 98%; in [5], 44%; in [6], 106%. Besides, the Activity in [7] was 96%; in experiment [8], 71%; in experiment [9] it was 96%; in experiment [10] it was 66%; in experiment [11], 8%; in [12] it was 100%. In addition, the Activity in experiment [13] worked out at 103%; in experiment [14], 89%; in [15], 101%; in [16], 87%; in [17], 91%.
For `C=CCOC(=O)c1cc(-c2ccc(/C=C3/NC(=S)NC3=O)o2)ccc1Cl`, the Activity in experiment [1] was 86%; in experiment [2] it was 95%; in experiment [3], 96%; in experiment [4], 103%; in experiment [5], 24%; in experiment [6] it was 99%. The Activity stood at 87% in experiment [7]; 93% in [8]; 89% in [9]; 62% in experiment [10]; 10% in [11]; 104% in [12]. Further, the Activity stood at 96% in [13]; 100% in [14]; 94% in [15]; 107% in experiment [16]; 99% in [17].
